From ChEMBL document CHEMBL5291721, “A preclinical secondary pharmacology resource illuminates target-adverse drug reaction associations of marketed drugs” (Nat Commun, 2023) come the findings set out here.

The structures appear in SMILES notation. Where only a bound is given, the exact number is not on record here.

Experiment [1] deals with Histamine H3 receptor (Homo sapiens, UniProt Q9Y5N1).
Experiment [2] deals with Beta-2 adrenergic receptor (Homo sapiens, UniProt P07550). It counts as functional, cell-based.
The target in experiment [3] is Gamma-aminobutyric acid receptor subunit alpha-1 (Rattus norvegicus, UniProt P62813). Type of experiment: functional.
Experiment [4] has as its target T1, 5-hydroxytryptamine receptor 3A (Homo sapiens, UniProt P46098).
T1 sequence (P46098 whole entry): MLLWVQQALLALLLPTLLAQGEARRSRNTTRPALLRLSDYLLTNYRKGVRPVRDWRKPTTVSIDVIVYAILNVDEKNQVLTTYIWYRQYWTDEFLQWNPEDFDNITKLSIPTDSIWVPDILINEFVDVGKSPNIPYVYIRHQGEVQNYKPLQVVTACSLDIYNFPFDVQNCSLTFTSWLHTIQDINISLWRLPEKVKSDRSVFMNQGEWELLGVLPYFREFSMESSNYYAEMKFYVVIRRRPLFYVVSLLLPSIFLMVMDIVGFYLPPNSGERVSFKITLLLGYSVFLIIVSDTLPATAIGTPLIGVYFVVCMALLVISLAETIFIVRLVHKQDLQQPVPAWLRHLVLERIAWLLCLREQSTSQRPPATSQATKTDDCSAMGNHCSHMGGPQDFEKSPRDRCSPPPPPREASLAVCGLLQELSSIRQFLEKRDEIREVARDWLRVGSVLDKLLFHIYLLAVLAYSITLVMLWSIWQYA
It counts as functional.

Experiment [5] concerns the target 3',5'-cyclic-AMP phosphodiesterase 4D (Homo sapiens, UniProt Q08499). Type of experiment: functional.
For experiment [6], the target named is T2, Alpha-1A adrenergic receptor (Homo sapiens, UniProt P35348).
T2 sequence (P35348 whole entry): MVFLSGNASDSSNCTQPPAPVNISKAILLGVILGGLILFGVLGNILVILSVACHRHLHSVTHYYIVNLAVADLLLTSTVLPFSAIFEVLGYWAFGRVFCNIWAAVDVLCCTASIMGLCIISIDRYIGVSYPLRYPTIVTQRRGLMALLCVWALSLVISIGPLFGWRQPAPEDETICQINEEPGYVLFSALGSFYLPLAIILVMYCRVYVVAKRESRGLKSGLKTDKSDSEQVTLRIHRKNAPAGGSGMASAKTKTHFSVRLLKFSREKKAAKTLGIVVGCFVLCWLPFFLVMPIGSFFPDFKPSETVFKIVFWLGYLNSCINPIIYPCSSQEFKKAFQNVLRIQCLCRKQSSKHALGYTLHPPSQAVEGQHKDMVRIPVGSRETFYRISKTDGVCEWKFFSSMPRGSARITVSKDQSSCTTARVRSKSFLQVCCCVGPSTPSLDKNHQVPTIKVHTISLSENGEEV
Type of experiment: functional, cell-based.

Experiment [7] has as its target T3, Endothelin-1 receptor (Homo sapiens, UniProt P25101).
T3 sequence (P25101 whole entry): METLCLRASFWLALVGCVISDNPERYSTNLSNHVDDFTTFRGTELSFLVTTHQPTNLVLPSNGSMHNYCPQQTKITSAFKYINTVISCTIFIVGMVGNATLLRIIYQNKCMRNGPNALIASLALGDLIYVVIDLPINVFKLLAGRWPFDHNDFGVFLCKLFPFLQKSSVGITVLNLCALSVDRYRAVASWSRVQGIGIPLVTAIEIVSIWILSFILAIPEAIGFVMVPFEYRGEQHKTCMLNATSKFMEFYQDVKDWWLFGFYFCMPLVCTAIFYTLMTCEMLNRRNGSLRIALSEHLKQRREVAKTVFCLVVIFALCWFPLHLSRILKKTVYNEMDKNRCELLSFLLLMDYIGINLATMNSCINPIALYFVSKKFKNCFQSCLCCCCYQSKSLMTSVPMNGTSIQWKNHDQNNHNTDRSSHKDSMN

Experiment [8] has as its target T4, Muscarinic acetylcholine receptor M2 (Homo sapiens, UniProt P08172).
T4 sequence (P08172 whole entry): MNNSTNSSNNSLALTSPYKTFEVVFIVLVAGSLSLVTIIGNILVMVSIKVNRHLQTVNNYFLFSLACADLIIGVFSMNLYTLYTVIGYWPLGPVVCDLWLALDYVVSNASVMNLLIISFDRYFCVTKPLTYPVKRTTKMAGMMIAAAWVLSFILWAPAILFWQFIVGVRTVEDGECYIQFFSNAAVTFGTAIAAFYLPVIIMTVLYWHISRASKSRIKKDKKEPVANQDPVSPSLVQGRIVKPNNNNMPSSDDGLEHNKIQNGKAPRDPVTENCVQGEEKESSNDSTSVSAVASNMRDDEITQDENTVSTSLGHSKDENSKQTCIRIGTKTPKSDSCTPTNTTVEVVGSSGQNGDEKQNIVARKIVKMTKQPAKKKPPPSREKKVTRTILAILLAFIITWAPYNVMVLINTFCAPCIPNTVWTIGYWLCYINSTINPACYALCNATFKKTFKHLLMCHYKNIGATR
It counts as functional, cell-based.

Experiment [9] addresses Cannabinoid receptor 1 (Homo sapiens, UniProt P21554). It counts as functional, cell-based.
For experiment [10], the target named is Neuronal acetylcholine receptor subunit alpha-4 (Homo sapiens, UniProt P43681).
Experiment [11] deals with Vasopressin V1a receptor (Homo sapiens, UniProt P37288).
Experiment [12] deals with T2, Alpha-1A adrenergic receptor. It counts as functional, cell-based. This is another data set of the same source.
Experiment [13] has as its target T5, Type-1 angiotensin II receptor (Homo sapiens, UniProt P30556).
T5 sequence (P30556 whole entry): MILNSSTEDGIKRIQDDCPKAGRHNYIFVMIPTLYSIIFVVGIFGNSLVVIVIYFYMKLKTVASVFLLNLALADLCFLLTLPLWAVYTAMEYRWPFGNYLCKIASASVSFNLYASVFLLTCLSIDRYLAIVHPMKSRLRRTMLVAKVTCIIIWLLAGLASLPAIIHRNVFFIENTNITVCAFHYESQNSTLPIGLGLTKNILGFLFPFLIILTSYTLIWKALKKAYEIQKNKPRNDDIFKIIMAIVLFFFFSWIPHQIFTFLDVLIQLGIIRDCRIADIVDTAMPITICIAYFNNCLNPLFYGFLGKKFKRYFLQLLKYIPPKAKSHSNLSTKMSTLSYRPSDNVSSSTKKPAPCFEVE

Experiment [14] deals with T2, Alpha-1A adrenergic receptor. Type of experiment: functional, cell-based. This is another data set of the same source.
Also: assay procedure not described here.

Sequence of 3',5'-cyclic-AMP phosphodiesterase 4D (Q08499 whole entry): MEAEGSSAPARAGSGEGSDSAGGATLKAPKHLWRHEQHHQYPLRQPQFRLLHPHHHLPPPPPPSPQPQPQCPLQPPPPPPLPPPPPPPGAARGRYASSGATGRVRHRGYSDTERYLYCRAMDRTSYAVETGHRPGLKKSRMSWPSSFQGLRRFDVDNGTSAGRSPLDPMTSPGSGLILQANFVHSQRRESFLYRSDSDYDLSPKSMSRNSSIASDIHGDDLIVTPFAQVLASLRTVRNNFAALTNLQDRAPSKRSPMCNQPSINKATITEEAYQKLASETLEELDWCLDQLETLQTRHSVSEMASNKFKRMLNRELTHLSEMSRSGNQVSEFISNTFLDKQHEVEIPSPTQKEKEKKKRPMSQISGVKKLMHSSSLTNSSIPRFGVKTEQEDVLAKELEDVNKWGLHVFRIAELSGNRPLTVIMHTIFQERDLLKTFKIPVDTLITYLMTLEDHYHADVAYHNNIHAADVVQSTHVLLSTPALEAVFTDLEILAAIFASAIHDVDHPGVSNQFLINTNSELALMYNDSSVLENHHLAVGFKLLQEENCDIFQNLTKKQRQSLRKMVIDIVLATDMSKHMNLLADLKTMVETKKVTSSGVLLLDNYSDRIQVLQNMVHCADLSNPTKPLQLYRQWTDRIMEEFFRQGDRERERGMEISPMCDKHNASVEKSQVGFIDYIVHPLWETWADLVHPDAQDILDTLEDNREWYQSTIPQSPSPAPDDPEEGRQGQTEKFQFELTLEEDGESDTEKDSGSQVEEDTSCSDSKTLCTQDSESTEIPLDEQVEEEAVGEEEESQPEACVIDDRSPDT
Sequence of Beta-2 adrenergic receptor (P07550 whole entry): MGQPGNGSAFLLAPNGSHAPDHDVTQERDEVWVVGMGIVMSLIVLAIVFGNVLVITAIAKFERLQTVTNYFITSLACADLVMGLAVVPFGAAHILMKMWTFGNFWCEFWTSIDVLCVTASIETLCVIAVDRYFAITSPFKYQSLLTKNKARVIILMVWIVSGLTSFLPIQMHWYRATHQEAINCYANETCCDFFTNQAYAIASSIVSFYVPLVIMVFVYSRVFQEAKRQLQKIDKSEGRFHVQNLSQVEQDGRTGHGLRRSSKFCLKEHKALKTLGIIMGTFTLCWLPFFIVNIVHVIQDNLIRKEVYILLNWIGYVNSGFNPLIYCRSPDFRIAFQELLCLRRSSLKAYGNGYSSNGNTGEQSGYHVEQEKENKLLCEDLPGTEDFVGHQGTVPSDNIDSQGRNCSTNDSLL
Sequence of Histamine H3 receptor (Q9Y5N1 whole entry): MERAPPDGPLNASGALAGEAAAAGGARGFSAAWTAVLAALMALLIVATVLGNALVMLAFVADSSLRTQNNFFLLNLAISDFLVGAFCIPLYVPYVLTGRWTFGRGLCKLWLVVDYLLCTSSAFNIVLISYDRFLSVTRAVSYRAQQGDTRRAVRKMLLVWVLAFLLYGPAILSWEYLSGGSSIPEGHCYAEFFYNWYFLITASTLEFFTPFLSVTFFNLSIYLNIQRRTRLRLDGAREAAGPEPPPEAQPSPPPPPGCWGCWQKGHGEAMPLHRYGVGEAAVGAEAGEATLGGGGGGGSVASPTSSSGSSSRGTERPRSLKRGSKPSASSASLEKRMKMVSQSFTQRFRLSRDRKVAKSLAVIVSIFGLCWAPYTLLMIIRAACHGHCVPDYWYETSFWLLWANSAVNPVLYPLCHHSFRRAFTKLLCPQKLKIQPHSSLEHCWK
Sequence of Vasopressin V1a receptor (P37288 whole entry): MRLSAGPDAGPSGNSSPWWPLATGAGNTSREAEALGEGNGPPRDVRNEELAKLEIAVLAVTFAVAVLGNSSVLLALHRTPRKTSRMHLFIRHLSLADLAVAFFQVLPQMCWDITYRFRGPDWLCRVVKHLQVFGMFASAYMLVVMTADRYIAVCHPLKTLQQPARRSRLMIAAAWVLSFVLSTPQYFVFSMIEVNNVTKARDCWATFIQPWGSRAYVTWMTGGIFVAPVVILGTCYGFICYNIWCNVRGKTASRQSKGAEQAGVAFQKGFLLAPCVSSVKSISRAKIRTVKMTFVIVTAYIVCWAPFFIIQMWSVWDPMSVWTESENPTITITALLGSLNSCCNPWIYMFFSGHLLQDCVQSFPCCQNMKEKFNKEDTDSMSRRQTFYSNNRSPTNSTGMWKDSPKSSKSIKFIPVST
Sequence of Gamma-aminobutyric acid receptor subunit alpha-1 (P62813 whole entry): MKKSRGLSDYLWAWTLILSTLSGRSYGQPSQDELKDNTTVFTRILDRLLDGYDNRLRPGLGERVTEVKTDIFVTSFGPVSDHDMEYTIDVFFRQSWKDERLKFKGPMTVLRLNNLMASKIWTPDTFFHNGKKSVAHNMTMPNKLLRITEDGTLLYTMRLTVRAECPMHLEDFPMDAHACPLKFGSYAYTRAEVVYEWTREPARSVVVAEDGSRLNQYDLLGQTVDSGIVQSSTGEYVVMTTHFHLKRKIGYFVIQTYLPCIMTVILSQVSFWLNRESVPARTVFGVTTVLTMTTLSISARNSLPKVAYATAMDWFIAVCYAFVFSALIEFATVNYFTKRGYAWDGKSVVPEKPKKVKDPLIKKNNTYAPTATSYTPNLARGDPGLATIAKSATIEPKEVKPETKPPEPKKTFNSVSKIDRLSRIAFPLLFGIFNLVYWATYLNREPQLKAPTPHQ
Sequence of Neuronal acetylcholine receptor subunit alpha-4 (P43681 whole entry): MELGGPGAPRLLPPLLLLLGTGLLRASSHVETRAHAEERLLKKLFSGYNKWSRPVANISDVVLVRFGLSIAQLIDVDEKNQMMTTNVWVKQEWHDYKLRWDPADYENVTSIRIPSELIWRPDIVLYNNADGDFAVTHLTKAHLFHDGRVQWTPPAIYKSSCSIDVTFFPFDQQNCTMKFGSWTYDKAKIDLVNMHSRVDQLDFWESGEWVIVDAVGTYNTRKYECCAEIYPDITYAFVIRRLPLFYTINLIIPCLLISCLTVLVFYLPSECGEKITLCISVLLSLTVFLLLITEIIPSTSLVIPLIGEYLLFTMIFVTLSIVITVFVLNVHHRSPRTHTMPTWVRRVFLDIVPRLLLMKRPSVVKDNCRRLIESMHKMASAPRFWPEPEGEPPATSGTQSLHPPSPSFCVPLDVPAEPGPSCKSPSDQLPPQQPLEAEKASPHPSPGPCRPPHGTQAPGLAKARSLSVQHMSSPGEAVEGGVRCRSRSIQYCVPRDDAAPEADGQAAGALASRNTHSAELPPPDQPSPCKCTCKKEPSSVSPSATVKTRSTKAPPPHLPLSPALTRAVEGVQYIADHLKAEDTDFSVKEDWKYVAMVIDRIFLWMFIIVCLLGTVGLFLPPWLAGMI
Sequence of Cannabinoid receptor 1 (P21554 whole entry): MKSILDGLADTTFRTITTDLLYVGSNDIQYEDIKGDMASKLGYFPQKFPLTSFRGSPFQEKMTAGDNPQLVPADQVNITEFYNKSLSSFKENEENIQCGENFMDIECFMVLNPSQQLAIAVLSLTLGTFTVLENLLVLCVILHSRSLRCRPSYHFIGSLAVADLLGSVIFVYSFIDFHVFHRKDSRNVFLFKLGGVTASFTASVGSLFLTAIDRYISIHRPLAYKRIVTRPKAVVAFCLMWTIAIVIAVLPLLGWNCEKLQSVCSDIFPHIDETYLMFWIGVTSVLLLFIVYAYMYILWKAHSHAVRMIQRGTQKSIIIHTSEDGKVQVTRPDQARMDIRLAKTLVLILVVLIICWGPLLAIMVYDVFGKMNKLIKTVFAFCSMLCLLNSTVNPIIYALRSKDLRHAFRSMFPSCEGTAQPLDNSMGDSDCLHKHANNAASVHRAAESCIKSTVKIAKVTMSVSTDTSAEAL

Regarding `C[C@@H](NCCCc1cccc(C(F)(F)F)c1)c1cccc2ccccc12`, the AC50 in experiment [1], in experiment [2], in experiment [3], in experiment [4], in experiment [5] and in experiment [6] was more than 30 µM each time. For the same compound, the half-maximal activity concentration (AC50) in [7] is more than 30 µM; in experiment [8] it was more than 30 µM; in [9], more than 30 µM; in experiment [10], more than 1 µM; in experiment [11], more than 30 µM; in experiment [12], more than 30 µM. In [13], this compound showed an AC50 of more than 30 µM.
As to `CCN1CCN(Cc2ccc(Nc3ncc(F)c(-c4cc(F)c5nc(C)n(C(C)C)c5c4)n3)nc2)CC1` [ABEMACICLIB], the concentration at half-maximal activity (AC50) in experiment [1] was 0.31 µM; in experiment [2], more than 30 µM; in [3], more than 30 µM; in [4], more than 30 µM; in experiment [5], 3.2 µM; in experiment [6], more than 30 µM. Also, the concentration at half-maximal activity (AC50) in experiment [7], in experiment [8], in experiment [9], in experiment [10], in experiment [11] and in experiment [12] was more than 30 µM each time. In [13], the AC50 is more than 30 µM.
Regarding `CCCN(CCC)C(=O)Cc1c(-c2ccc(Cl)cc2)nc2ccc(Cl)cn12` [ALPIDEM], the half-maximal activity concentration (AC50) in experiment [1] was more than 30 µM; in experiment [3] it was 0.0431 µM; in experiment [4] it was more than 30 µM; in experiment [5], 13 µM; in experiment [14], more than 30 µM; in [7], more than 10 µM. In addition, the AC50 in experiment [8], in experiment [10], in experiment [11] and in experiment [13] was more than 30 µM in each case.
Take `COc1ccccc1Oc1c(NS(=O)(=O)c2ccc(C(C)(C)C)cc2)nc(-c2ncccn2)nc1OCCO` [BOSENTAN]: the AC50 is more than 10 µM in experiment [1]; more than 30 µM in experiment [2]; more than 10 µM in [3]; more than 30 µM in experiment [4]; more than 30 µM in experiment [5]; more than 30 µM in experiment [6]. Also, the concentration at half-maximal activity (AC50) in experiment [8] is more than 10 µM; in [9], more than 30 µM; in [10] it was more than 30 µM; in experiment [11] it was more than 30 µM; in [12], more than 30 µM; in [13], more than 30 µM.
For the compound `O=C1CCc2cc(OCCCCc3nnnn3C3CCCCC3)ccc2N1` [CILOSTAZOL], the AC50 in [1] is more than 30 µM; in experiment [2], more than 30 µM; in experiment [3], more than 30 µM; in experiment [4], more than 30 µM; in [5], 23.4 µM; in experiment [6], more than 30 µM. Further, the AC50 in experiment [7], in experiment [8], in experiment [9], in [10], in experiment [12] and in experiment [13] was more than 30 µM throughout.
For the compound `C[C@@H](Oc1cc(-c2cnn(C3CCNCC3)c2)cnc1N)c1c(Cl)ccc(F)c1Cl` [CRIZOTINIB], the AC50 in experiment [2] is more than 30 µM; in experiment [3], more than 30 µM; in experiment [4] it was more than 30 µM; in experiment [5], 4.8 µM; in experiment [7], more than 30 µM; in experiment [8] it was more than 10 µM. Further, the results for the concentration at half-maximal activity (AC50) in experiment [9], in experiment [11] and in [13] were more than 10 µM, more than 30 µM and 29 µM, respectively.
For `CC(C)N(CCC(C(N)=O)(c1ccccc1)c1ccccn1)C(C)C` (stereo not given) [DISOPYRAMIDE], the AC50 in experiment [1] was more than 30 µM; in [2], more than 30 µM; in experiment [3] it was more than 10 µM; in experiment [4], more than 30 µM; in experiment [5], more than 10 µM; in experiment [6] it was more than 30 µM. For the same compound, the AC50 is more than 30 µM in experiment [7]; more than 10 µM in experiment [8]; more than 30 µM in [9]; more than 30 µM in experiment [10]; more than 30 µM in [11]; more than 30 µM in [12]. Besides, the half-maximal activity concentration (AC50) in experiment [13] is more than 30 µM.
As for `CN(C)CCC[C@@]1(c2ccc(F)cc2)OCc2cc(C#N)ccc21` [ESCITALOPRAM], the concentration at half-maximal activity (AC50) in experiment [1], in [2], in [3], in [4], in experiment [5] and in [7] was more than 30 µM in each case. Also, the AC50 in experiment [9], in experiment [10], in [11] and in experiment [13] was more than 30 µM in each case.
Take `C#C[C@]1(O)CC[C@H]2[C@@H]3CCC4=CC(=O)CC[C@@H]4[C@H]3C(=C)C[C@@]21CC` [ETONOGESTREL]: the half-maximal activity concentration (AC50) in [2] is more than 30 µM; in [3] it was 27 µM; in [4], more than 30 µM; in experiment [5] it was more than 30 µM; in experiment [6], more than 30 µM; in [9], more than 30 µM. In experiment [12], this compound returned an AC50 of more than 30 µM.
As for `CN(CC1(C)CCCO1)S(=O)(=O)c1ccc(Cl)c(S(N)(=O)=O)c1` (stereo not given) [MEFRUSIDE], the concentration at half-maximal activity (AC50) in [2], in experiment [3], in [4], in experiment [5], in experiment [6] and in experiment [9] was more than 30 µM throughout. Further, the AC50 in experiment [12] is more than 30 µM.
Regarding `C=C[C@H]1C[N@@]2CC[C@H]1C[C@@H]2[C@@H](O)c1ccnc2ccc(OC)cc12` [QUINIDINE], the AC50 is more than 10 µM in [1]; more than 30 µM in experiment [2]; more than 30 µM in [4]; more than 30 µM in experiment [5]; more than 10 µM in experiment [8]; more than 30 µM in experiment [9]. Besides, the concentration at half-maximal activity (AC50) in [11] and in experiment [13] was more than 30 µM each time.
For `O=C1C(CC[S+]([O-])c2ccccc2)C(=O)N(c2ccccc2)N1c1ccccc1` (stereo not given) [SULFINPYRAZONE], the half-maximal activity concentration (AC50) was more than 30 µM in experiment [2]; more than 10 µM in experiment [3]; more than 30 µM in experiment [4]; more than 30 µM in [5]; more than 30 µM in experiment [6]; more than 10 µM in experiment [8]. The concentration at half-maximal activity (AC50) was more than 30 µM in [9]; more than 10 µM in experiment [10]; more than 10 µM in experiment [11]; more than 30 µM in experiment [12]; more than 10 µM in [13].
